Consider 28 molecules from patent US8580815B2, “Derivatives of azaindoles as inhibitors of protein kinases ABL and SRC” (Oribase Pharma, priority 2009, dated 2013).

This experiment addresses Abl kinase (h) (Homo sapiens (Human), UniProt P00519). Nature of the experiment: Cerep kinase profiling, HTRF assay, Abl kinase. The class given is biochemical. The method, then: The inhibitory activity of the compounds of the chemical series on different protein kinases was evaluated by Cerep (Cerep Kinase Profiling Service; www.cerep.com). The kinases used in the tests in vitro are human recombinant proteins expressed in human cells, insect cells or in bacteria. […] The activity of the kinase was then detected by an HTRF assay. The HTRF assay (CisBio International) is based on fluorescence transfer, using Europium (Eu3+) cryptate and XL665 respectively as donor and acceptor. When the biotinylated or tagged substrate is phosphorylated by the kinase, it reacts with a cryptate-labelled phosphospecific antibody. Addition of Streptavidin-XL665, SA-XL665, (or anti-tag antibody XL665) leads to juxtaposition of the cryptate and of the fluorophore XL665, which is reflected in fluorescence resonance energy transfer (FRET). The intensity of FRET depends on the quantity of cryptate-labelled antibody bound to the substrate, which is proportional to the quantity of phosphorylated substrate (Mathis, G. Probing molecular interactions with homogeneous techniques based on rare earth cryptates and fluorescence energy transfer.
On the technique in general: Time-resolved FRET reads energy transfer from a long-lived donor to a nearby acceptor.

The mark [1] stands for this setting: 10 μM, compounds tested by Cerep, read-out: % inhibition of kinase activity, Abl WT (category).
The mark [2] stands for this setting: Table 6, compound incubated at 10 μM, read-out: Percentage inhibition of kinase Abl.
[3] abbreviates: Table 9, Cerep, 5 concentrations 10^−10 M to 10^−4 M, read-out: IC50 in M Abl.
The mark [4] stands for this setting: compounds tested by Cerep, read-out: IC50 on kinase Abl WT (category).

Structures are written as SMILES. Read-outs that look alike come from different tables or passages of the source.

The inhibition is the share of the control response that was lost under treatment. As to `CC1CCCCC1NCc1cc2cc(NC(=O)c3ccccc3Br)cnc2[nH]1` (stereo not shown) [ND0026], the inhibition at 10 µM under setting [1] was less than 10% and the inhibition at 10 µM under setting [2] was determined as 8%.

In the case of `O=C(Nc1cnc2[nH]c(CNc3cccc(Br)c3)cc2c1)c1ccccc1Br` [ND0027], the inhibition at 10 µM was 10 to 50% under setting [1] and 29% under setting [2].

With `CN(C)CCCNC(=O)c1cc2cc(NC(=O)c3ccc4nccnc4c3)cnc2[nH]1` [ND0012, N-(2-(3-(dimethylamino)propylcarbamoyl)-1H-pyrrolo[2,3-b]pyridin-5-yl)quinoxaline-6-carboxamide], the inhibition at 10 µM was less than 10% under setting [1] and 8% under setting [2].

The term IC50 denotes the concentration that inhibits the measured activity by half. Consider `O=C(Nc1cnc2[nH]c(Cn3ccnc3)cc2c1)c1ccccc1Br` [ND0031], for which the inhibition at 10 µM was greater than 50% under setting [1] and 86% under setting [2]. Also, the IC50 under setting [3] stood at 4 µM and the half-maximal inhibitory concentration (IC50) under setting [4] lay within 0.1 to 10 µM.

With `COC(=O)c1cc2cc(NC(=O)c3cccc(F)c3F)cnc2[nH]1` [ND0061, Methyl 5-(2,3-difluorobenzamido)-1H-pyrrolo[2,3-b]pyridine-2-carboxylate], the inhibition at 10 µM is 10 to 50% under setting [1] and 46% under setting [2].

For `Cc1cccc(NCc2cc3cc(NC(=O)c4ccccc4Br)cnc3[nH]2)c1` [ND0040], the inhibition at 10 µM by setting is: under setting [1], 10 to 50%; under setting [2], 21%.

In the case of `COC(=O)c1cc2cc(NC(=O)c3cccc(F)c3)cnc2[nH]1` [ND0053, Methyl 5-(3-fluorobenzamido)-1H-pyrrolo[2,3-b]pyridine-2-carboxylate], the inhibition at 10 µM runs as follows: under setting [1], 10 to 50%; under setting [2], 33%.

`COC(=O)c1cc2cc(NC(=O)c3cccnc3)cnc2[nH]1` [ND0050, Methyl 5-(nicotinamido)-1H-pyrrolo[2,3-b]pyridine-2-carboxylate]: the inhibition at 10 µM by setting is: under setting [1], 10 to 50%; under setting [2], 27%.

Take `COC(=O)c1cc2cc(NC(=O)C3CC3)cnc2[nH]1` [ND0044, Methyl 5-(cyclopropanecarboxamido)-1H-pyrrolo [2,3-b]pyridine-2-carboxylate]: the inhibition at 10 µM is, setting by setting: under setting [1], less than 10%; under setting [2], 6%.

Take `COC(=O)c1cc2cc(NC(=O)c3ccccc3Oc3ccccc3)cnc2[nH]1` [ND0059, Methyl 5-(2-phenoxybenzamido)-1H-pyrrolo[2,3-b]pyridine-2-carboxylate]: the inhibition at 10 µM reads like this: under setting [1], less than 10%; under setting [2], 5%.

For the molecule `COc1cccc(NCc2cc3cc(NC(=O)c4ccccc4Br)cnc3[nH]2)c1` [ND0041], the inhibition at 10 µM was 10 to 50% under setting [1] and 14% under setting [2].

Turning to `O=C(Nc1cnc2[nH]c(CO)cc2c1)c1ccccc1Br` [ND0019, 2-bromo-N-(2-(hydroxymethyl)-1H-pyrrolo[2,3-b]pyridin-5-yl)benzamide], the inhibition at 10 µM under setting [1] is greater than 50% and the inhibition at 10 µM under setting [2] stood at 82%.

As to `Cc1nc(-c2cccc(C(=O)Nc3cnc4[nH]c(C(=O)NCCCN(C)C)cc4c3)c2)cs1` [ND0011, 5-(3-(2-methylthiazol-4-yl)benzamido)-N-(3-(dimethylamino)propyl)-1H-pyrrolo[2,3-b]pyridine-2-carboxamide], the inhibition at 10 µM runs as follows: under setting [1], less than 10%; under setting [2], 6%. The IC50 was greater than 100 µM under setting [3] and greater than 10 µM under setting [4].

For `O=C(Nc1cnc2[nH]c(C(=O)N3CCOCC3)cc2c1)c1cc([N+](=O)[O-])ccc1F` [ND0010, 5-(2-fluoro-5-nitrobenzamido)-2-morpholinocarbonyl-1H-pyrrolo[2,3-b]pyridine], the inhibition at 10 µM is less than 10% under setting [1] and 1% under setting [2]. In addition, the 50% inhibitory concentration (IC50) under setting [3] is greater than 100 µM and the IC50 under setting [4] was greater than 10 µM.

Take `COC(=O)c1cc2cc(NC(=O)C(C)C)cnc2[nH]1` [ND0045, Methyl 5-(isobutyramido)-1H-pyrrolo[2,3-b]pyridine-2-carboxylate]: the inhibition at 10 µM is greater than 50% under setting [1] and 58% under setting [2].

With `O=C(Nc1cnc2[nH]c(CNc3cccc([N+](=O)[O-])c3)cc2c1)c1ccccc1Br` [ND0034], the inhibition at 10 µM reads like this: under setting [1], 10 to 50%; under setting [2], 17%.

With `O=C(Nc1cnc2[nH]c(CNCc3ccccc3)cc2c1)c1ccccc1Br` [ND0028], the inhibition at 10 µM runs as follows: under setting [1], 10 to 50%; under setting [2], 14%.

For the molecule `O=C(Nc1cnc2[nH]c(C(=O)NCCN3CCOCC3)cc2c1)c1cccc(F)c1` [ND0006, 5-(3-fluorobenzamido)-N-(2-morpholinoethyl)-1H-pyrrolo[2,3-b]pyridine-2-carboxamide], the inhibition at 10 µM reads like this: under setting [1], 10 to 50%; under setting [2], 33%. In addition, the IC50 is greater than 100 µM under setting [3] and greater than 10 µM under setting [4].

With `COC(=O)c1cc2cc(NC(=O)c3cccc4c3OCC4)cnc2[nH]1` [ND0062, Methyl 5-(2,3-dihydrobenzofuran-7-carboxamido)-1H-pyrrolo[2,3-b]pyridine-2-carboxylate], the inhibition at 10 µM by setting is: under setting [1], less than 10%; under setting [2], 6%.

Regarding `N#Cc1ccccc1NCc1cc2cc(NC(=O)c3ccccc3Br)cnc2[nH]1` [ND0036], the inhibition at 10 µM was 10 to 50% under setting [1] and 47% under setting [2].

With `CCC(=O)Nc1cnc2[nH]c(C(=O)OC)cc2c1` [ND0046, Methyl 5-(propionamido)-1H-pyrrolo[2,3-b]pyridine-2-carboxylate], the inhibition at 10 µM under setting [1] was 10 to 50% and the inhibition at 10 µM under setting [2] was determined as 49%.

Take `COc1ccc(OC(=O)c2cc3cc(NC(=O)c4ccccc4)cnc3[nH]2)cc1` [ND0004, 5-(benzamido)-1H-pyrrolo[2,3-b]pyridine-2-4-methoxyphenyl carboxylate]: the inhibition at 10 µM under setting [1] was in the range of 10 to 50% and the inhibition at 10 µM under setting [2] came to 31%.

On to `COC(=O)c1cc2cc(NC(=O)c3ccc(-c4csc(C)n4)cc3)cnc2[nH]1` [ND0054, Methyl 5-(4-(2-methylthiazol-4-yl)benzamido)-1H-pyrrolo[2,3-b]pyridine-2-carboxylate], for which the inhibition at 10 µM is, setting by setting: under setting [1], 10 to 50%; under setting [2], 15%.

`CCCSc1ncccc1C(=O)Nc1cnc2[nH]c(C(=O)OC)cc2c1` [ND0060, Methyl 5-(2-(propylthio)pyridine-3-carboxamido)-1H-pyrrolo[2,3-b]pyridine-2-carboxylate]: the inhibition at 10 µM runs as follows: under setting [1], 10 to 50%; under setting [2], 16%.

As for `N#Cc1ccc(NCc2cc3cc(NC(=O)c4ccccc4Br)cnc3[nH]2)cc1` [ND0032], the inhibition at 10 µM is, setting by setting: under setting [1], 10 to 50%; under setting [2], 27%.

With `NC(=O)c1cc2cc(NC(=O)c3cccc(F)c3)cnc2[nH]1` [ND0005, 5-(3-Fluorobenzamido)-1H-pyrrolo[2,3-b]pyridine-2-carboxamide], the inhibition at 10 µM under setting [1] lay within 10 to 50% and the inhibition at 10 µM under setting [2] amounted to 10%.

With `O=C(Nc1cnc2[nH]c(C[C@H]3CCCO3)cc2c1)c1ccccc1Br` [ND0025], the inhibition at 10 µM was 10 to 50% under setting [1] and 39% under setting [2].

In the case of `COC(=O)c1cc2cc(NC(=O)c3cccc(C#N)c3)cnc2[nH]1` [ND0051, Methyl 5-(3-cyanobenzamido)-1H-pyrrolo[2,3-b]pyridine-2-carboxylate], the inhibition at 10 µM reads like this: under setting [1], 10 to 50%; under setting [2], 20%.
